Measurements published in patent US8030336B2, “Nicotinamide-based kinase inhibitors” (YM Biosciences Australia Pty Ltd, priority 2002, dated 2011).

How the values were obtained:
Type in all cases: biochemical
human JAK2 = molecular target: T1, human JAK2 (Homo sapiens, UniProt O60674); assay: JAK2 kinase assay (ELISA or Alphascreen); settings: read-out: Jak2 inhibition of enzyme activity
T1 construct: The kinase domain of human JAK2 was amplified from U937mRNA; His tag (from the pFastBac HTc vector) (N); made in house; host or cells: baculovirus; Sf9 for virus, High Five insect cells for production
Description: The kinase domain of human JAK2 was amplified from U937mRNA using the polymerase chain reaction with the following primers: […]
JAK2 PCR products were doped into the pFastBac HTc expression vector (Gibco) via the Sal I and Not I sites. The JAK2 plasmid was than transformed into competent DH10Bac cells (Gibco), and the recombinant baculovirus produced prepared for transfection into Sf9 insect cells.
(§1) Baculovirus preparations from each of the JAK family members were infected into five liters of High Five cells (Invitrogen) grown in High Five serum free medium (Invitrogen) to a cell density of approximately 1-2×10^6 cells/ml. Cells are infected with virus at a MOI of 0.8-3.0. Cells were harvested and lysed. JAK kinase domains were purified by affinity chromatography on a Probond (Invitrogen) nickel chelate affinity column.
(§2) Kinase assays were performed in a 96 well capture-based ELISA assay or in 384 well Optiplates (Packard) using an Alphascreen Protein Tyrosine Kinase kit. In either case using approximately 1.5 μg of affinity purified PTK domain in the presence of 50 mM HEPES, pH 7.5, 10 mM MgCl2, 150 mM NaCl and 10 μM-1 mM ATP. The biotinylated substrate biotin-EGPWLEEEEEAYGWMDF-NH2 (SEQ ID NO:9) (final concentration 5 μM) was used as substrate. In the ELISA assay tyrosine phosphorylation was quantitated following transfer to an avidin coated ELISA plate using peroxidase-linked anti-phosphotyrosine antibody PY20. In the Alphascreen assay, Alphascreen phosphotyrosine acceptor beads followed by streptavidin donor beads were added under subdued light. The ELISA plates were read on a BMG Fluorostar, the Alphascreen plates were read on a Packard Fusion Alpha. Inhibitors were added to the assays fifteen minutes prior to the addition of ATP. Inhibitors were added in aqueous […] concentrations never exceeding 1%.

human JAK3 = molecular target: T2, human JAK3 (Homo sapiens, UniProt P52333); assay: JAK3 kinase assay (ELISA or Alphascreen); settings: read-out: Jak3 inhibition of enzyme activity
T2 construct: The kinase domain of human JAK3 was amplified from U937mRNA; His tag (from the pFastBac HTb vector) (N); made in house; host or cells: baculovirus; Sf9 for virus, High Five insect cells for production
Description: The kinase domain of human JAK3 was amplified from U937mRNA using the polymerase chain reaction with the following primers: […]
JAK3 PCR products were cloned into the pFastBac HTb expression vector (Gibco) via the Xho I and Kpn I sites. The JAK3 plasmid was then transformed into competent DH10Bac cells (Gibco), and the recombinant baculovirus produced prepared for transfection into Sf9 insect cells.
as §1, §2

fes = fes (Homo sapiens, UniProt P07332); assay: fes kinase assay (ELISA or Alphascreen); settings: read-out: fes inhibition of enzyme activity
Description: as §2

Zap70 = molecular target: T3, Zap70 (Homo sapiens, UniProt P43403); assay: Zap70 kinase assay (ELISA or Alphascreen); settings: read-out: Zap70 inhibition of enzyme activity
T3 sequence (P43403 338-600 limits assumed): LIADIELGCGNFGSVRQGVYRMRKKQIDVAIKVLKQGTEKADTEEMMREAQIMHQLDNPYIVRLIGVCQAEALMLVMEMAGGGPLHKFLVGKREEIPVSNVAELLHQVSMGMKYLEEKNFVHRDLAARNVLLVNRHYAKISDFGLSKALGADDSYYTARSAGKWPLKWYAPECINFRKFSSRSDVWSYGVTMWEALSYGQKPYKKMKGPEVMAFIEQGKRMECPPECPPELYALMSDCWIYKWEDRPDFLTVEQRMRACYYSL
Description: as §2

fms = molecular target: T4, fms (Homo sapiens, UniProt P07333); assay: fms kinase assay (ELISA or Alphascreen); settings: read-out: fms inhibition of enzyme activity
T4 sequence (P07333 582-910 limits assumed): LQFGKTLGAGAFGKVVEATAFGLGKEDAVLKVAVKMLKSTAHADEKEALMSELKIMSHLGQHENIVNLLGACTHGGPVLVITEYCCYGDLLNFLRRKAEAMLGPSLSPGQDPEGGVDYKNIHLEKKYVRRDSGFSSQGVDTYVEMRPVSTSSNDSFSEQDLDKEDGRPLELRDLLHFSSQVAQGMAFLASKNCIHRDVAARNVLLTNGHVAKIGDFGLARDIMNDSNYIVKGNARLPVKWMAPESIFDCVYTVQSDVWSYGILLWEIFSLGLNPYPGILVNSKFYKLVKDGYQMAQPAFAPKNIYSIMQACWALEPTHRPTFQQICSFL
Description: as §2

abl = molecular target: T5, abl (Homo sapiens, UniProt P00519); assay: abl kinase assay (ELISA or Alphascreen); settings: read-out: abl inhibition of enzyme activity
T5 sequence (P00519 242-493 limits assumed): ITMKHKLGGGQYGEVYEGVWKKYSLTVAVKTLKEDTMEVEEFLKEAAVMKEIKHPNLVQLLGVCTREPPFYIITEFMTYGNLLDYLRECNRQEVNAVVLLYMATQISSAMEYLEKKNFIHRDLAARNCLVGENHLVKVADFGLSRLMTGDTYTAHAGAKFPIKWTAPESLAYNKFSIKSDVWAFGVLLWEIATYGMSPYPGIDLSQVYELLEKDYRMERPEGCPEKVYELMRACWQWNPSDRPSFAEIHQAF
Description: as §2

T1 sequence (O60674 849-1124 limits assumed): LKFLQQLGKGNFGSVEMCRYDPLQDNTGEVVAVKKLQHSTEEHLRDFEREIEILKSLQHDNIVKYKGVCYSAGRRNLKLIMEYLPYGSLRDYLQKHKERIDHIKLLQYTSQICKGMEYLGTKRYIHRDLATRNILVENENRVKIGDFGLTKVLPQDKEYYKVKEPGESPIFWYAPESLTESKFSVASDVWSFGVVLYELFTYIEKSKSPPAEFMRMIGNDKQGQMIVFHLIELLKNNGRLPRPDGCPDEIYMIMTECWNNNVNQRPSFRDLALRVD
T2 sequence (P52333 822-1111 limits assumed): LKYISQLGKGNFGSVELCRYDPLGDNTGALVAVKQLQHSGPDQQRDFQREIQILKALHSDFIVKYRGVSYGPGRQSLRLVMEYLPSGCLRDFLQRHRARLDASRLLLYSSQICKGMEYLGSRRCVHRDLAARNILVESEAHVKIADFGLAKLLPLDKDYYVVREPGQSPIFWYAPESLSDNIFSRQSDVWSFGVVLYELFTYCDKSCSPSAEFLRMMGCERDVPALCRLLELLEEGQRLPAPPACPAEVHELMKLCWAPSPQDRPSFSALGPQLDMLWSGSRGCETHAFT
fes, sequence (P07332 561-822 limits assumed, species assumed): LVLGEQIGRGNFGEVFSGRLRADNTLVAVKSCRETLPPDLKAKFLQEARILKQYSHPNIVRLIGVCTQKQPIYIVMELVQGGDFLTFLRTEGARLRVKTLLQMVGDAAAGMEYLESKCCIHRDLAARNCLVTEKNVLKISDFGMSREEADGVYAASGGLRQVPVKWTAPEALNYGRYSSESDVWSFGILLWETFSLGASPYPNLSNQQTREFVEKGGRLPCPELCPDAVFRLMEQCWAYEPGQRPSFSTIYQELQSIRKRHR

Structure (SMILES): O=C(NCc1ccncc1)c1cncc(-c2ccc(F)cc2)c1
- inhibition at 10 µM (human JAK2): < 50%
- inhibition at 10 µM (human JAK3): < 50%
- inhibition at 10 µM (fes): < 50%
- inhibition at 10 µM (Zap70): < 50%
- inhibition at 10 µM (fms): < 50%
- inhibition at 10 µM (abl): < 50%

Structure (SMILES): Cc1cc(F)ccc1NC(=O)c1cncc(-c2cccs2)c1
- inhibition at 10 µM (human JAK3): < 50%
- inhibition at 10 µM (fes): < 50%
- inhibition at 10 µM (Zap70): < 50%
- inhibition at 10 µM (fms): < 50%
- inhibition at 10 µM (abl): < 50%

Structure (SMILES): Cc1ccc(C)c(NC(=O)c2cncc(-c3cccs3)c2)c1
- inhibition at 10 µM (human JAK2): < 50%
- inhibition at 10 µM (human JAK3): < 50%
- inhibition at 10 µM (fes): ≥ 50%
- inhibition at 10 µM (Zap70): < 50%
- inhibition at 10 µM (fms): < 50%
- inhibition at 10 µM (abl): < 50%

Structure (SMILES): C[C@@H](NC(=O)c1cncc(-c2ccc(F)cc2)c1)c1ccccc1
- inhibition at 10 µM (human JAK2): < 50%
- inhibition at 10 µM (human JAK3): < 50%
- inhibition at 10 µM (fes): < 50%
- inhibition at 10 µM (Zap70): < 50%
- inhibition at 10 µM (fms): < 50%

Structure (SMILES): O=C(NCCCn1ccnc1)c1cncc(-c2ccc(F)cc2)c1
- inhibition at 10 µM (human JAK2): < 50%
- inhibition at 10 µM (human JAK3): < 50%
- inhibition at 10 µM (fes): < 50%
- inhibition at 10 µM (Zap70): < 50%
- inhibition at 10 µM (fms): < 50%

Structure (SMILES): Cc1ccccc1NC(=O)c1cncc(-c2ccc(F)cc2)c1
- inhibition at 10 µM (human JAK2): < 50%
- inhibition at 10 µM (human JAK3): < 50%
- inhibition at 10 µM (fes): < 50%
- inhibition at 10 µM (Zap70): < 50%
- inhibition at 10 µM (abl): < 50%

Structure (SMILES): COc1ccc(NC(=O)c2cncc(-c3ccc(F)cc3)c2)c(OC)c1
- inhibition at 10 µM (human JAK2): < 50%
- inhibition at 10 µM (human JAK3): < 50%
- inhibition at 10 µM (fes): < 50%
- inhibition at 10 µM (Zap70): < 50%
- inhibition at 10 µM (fms): < 50%
- inhibition at 10 µM (abl): < 50%

Structure (SMILES): COc1ccc(NC(=O)c2cncc(-c3cc(OC)c(OC)c(OC)c3Cl)c2)c(OC)c1
- inhibition at 10 µM (human JAK2): < 50%
- inhibition at 10 µM (human JAK3): < 50%
- inhibition at 10 µM (fes): < 50%
- inhibition at 10 µM (Zap70): < 50%
- inhibition at 10 µM (fms): < 50%
- inhibition at 10 µM (abl): < 50%

Structure (SMILES): COc1cc(-c2cncc(C(=O)Nc3ccc(N4CCOCC4)cc3)c2)c(Cl)c(OC)c1OC
- inhibition at 10 µM (human JAK2): < 50%
- inhibition at 10 µM (human JAK3): < 50%
- inhibition at 10 µM (fes): < 50%
- inhibition at 10 µM (Zap70): < 50%
- inhibition at 10 µM (fms): < 50%
- inhibition at 10 µM (abl): < 50%

Structure (SMILES): COc1cc(-c2cncc(C(=O)NC(CO)C(C)C)c2)c(Cl)c(OC)c1OC (stereo not shown)
- inhibition at 10 µM (human JAK2): < 50%
- inhibition at 10 µM (human JAK3): < 50%
- inhibition at 10 µM (Zap70): < 50%
- inhibition at 10 µM (fms): < 50%
- inhibition at 10 µM (abl): < 50%

Structure (SMILES): Cc1ccc(C)c(NC(=O)c2cncc(-c3ccc4c(c3)OCO4)c2)c1
- inhibition at 10 µM (human JAK2): < 50%
- inhibition at 10 µM (human JAK3): < 50%
- inhibition at 10 µM (fes): < 50%
- inhibition at 10 µM (Zap70): < 50%
- inhibition at 10 µM (fms): < 50%
- inhibition at 10 µM (abl): < 50%

Structure (SMILES): O=C(NCc1ccc(Cl)c(Cl)c1)c1cncc(-c2ccc3c(c2)OCO3)c1
- inhibition at 10 µM (human JAK2): < 50%
- inhibition at 10 µM (human JAK3): < 50%
- inhibition at 10 µM (fes): < 50%
- inhibition at 10 µM (Zap70): < 50%
- inhibition at 10 µM (fms): < 50%

Structure (SMILES): C[C@H](NC(=O)c1cncc(-c2cccnc2)c1)c1ccccc1
- inhibition at 10 µM (human JAK2): < 50%
- inhibition at 10 µM (human JAK3): < 50%
- inhibition at 10 µM (fes): < 50%
- inhibition at 10 µM (Zap70): < 50%
- inhibition at 10 µM (fms): < 50%

Structure (SMILES): CN1CCN(c2ccc(NC(=O)c3cncc(-c4ccc(F)cc4)c3)cc2)CC1
- inhibition at 10 µM (human JAK2): < 50%
- inhibition at 10 µM (human JAK3): < 50%
- inhibition at 10 µM (Zap70): < 50%
- inhibition at 10 µM (fms): < 50%
- inhibition at 10 µM (abl): < 50%
